Measured values reported in patent US20180243290A1, “MORPHINAN COMPOUNDS FOR TREATING AGITATION” (Concert Pharmaceuticals, Inc., priority 2015, published 2018).

How the values were obtained:
[1] = Metabolic stability in extensive metabolizer human liver microsomes with and without quinidine; type: in vitro ADME; settings: for CLint scaled at 100 ng/mL / half-life at 100 ng/mL: human; for CLint scaled at 100 ng/mL / Clint, app Ratio (respective to 0 concentration of Quinidine) / t1/2 Ratio (respective to 0 concentration of Quinidine) / % Δ (D6-Dimemorfan/Dimemorfan) of t1/2 / Clint, app Ratio (D6-Dimemorfan/Dimemorfan): EM HLM; for half-life at 100 ng/mL: EM HLM 1.0 mg/mL, 100 ng/mL test compound, 60 min
Protocol: Individual donor with extensive metabolizer human liver microsomes (EM HLM) (20 mg/mL) with CYP2D6 activity of 957±19 pmol/mg protein/min, genotyped for CYP2D6 allelic variant-CYP2D6*1/*2x2, were obtained from Xenotech, LLC (Lenexa, Kans.). β-nicotinamide adenine dinucleotide phosphate, reduced form (NADPH), magnesium chloride (MgCl2), dimethyl sulfoxide (DMSO), acetonitrile (ACN), quinidine, and dextromethorphan (DM) were purchased from Sigma-Aldrich. Dimemorfan and d6-dimemorfan (Compound 100) were synthesized by Adesis, Inc.
1.0 mg/mL stock solutions of test compounds dextromethorphan (DM), dimemorfan, and d6-dimemorfan (Compound 100) were prepared in DMSO. The 1.0 mg/mL stock solutions were diluted to 10,000 ng/mL in acetonitrile (ACN). A 10 mM stock solution of quinidine was prepared in acetonitrile, which was then diluted further in acetonitrile to produce 20 μM, 10 μM, 5 μM, 2.5 μM, and 1.25 μM solutions of quinidine. The human liver microsomes were diluted to 1.25 mg/mL in 0.1 M potassium phosphate buffer, pH 7.4, containing 3 mM MgCl2. The diluted microsomes were added to wells of a 96-well deep-well polypropylene plate in triplicate. A 5 μL aliquot of each 10,000 ng/mL test compound was added to the microsomes, and the mixture was pre-warmed at 37° C. for 7 minutes, then a 5 μL aliquot of each quinidine solution was added (except in control wells where no quinidine was added). Reactions were initiated by addition of pre-warmed NADPH solution to the mixture. The final reaction volume was 0.5 mL and contained 1.0 mg/mL human liver microsomes, 100 ng/mL of test compound, 0.2, 0.1, 0.05, 0.025, 0.0125, or 0 μM of quinidine, and 2 mM NADPH in 0.1 M potassium phosphate buffer, pH 7.4, and 3 mM MgCl2. The reaction mixtures were incubated at 37° C., and 50 μL aliquots were removed at 0, 15, 30, and 60 minutes and added to shallow-well 96-well plates which contained 50 μL of ice-cold ACN with internal standard to stop the reactions. The plates were stored at 4° C. for 20 minutes after which 100 μL of water was added to the wells of the plate before centrifugation to pellet precipitated proteins. Supernatants were transferred to another 96-well plate and analyzed for amounts of parent remaining by LC-MS/MS using an Applied Bio-systems mass spectrometer. Amount of parent remaining was quantified via standard curve.
The in vitro till's for test compounds were calculated from the slopes of the linear regression of % parent remaining (1n) vs. incubation time relationship.
k=−[slope of linear regression of % parent remaining(ln) vs incubation time]
The apparent intrinsic clearance was calculated using the following equation:
CLint (mL/min/kg)=(0.693/in vitro t1/2) (Incubation Volume/mg of microsomes) • (45 mg microsomes/gram of liver) (20 gm of liver/kg b.w.)
Data analysis was performed using Microsoft Excel Software.

[2] = healthy human males; cited from earlier work
[3] = pH 7.4, with none (quinidine 0 µM, control), quinidine 0 μM
[4] = pH 7.4, with quinidine 0.0125 µM, quinidine 0.0125 μM
[5] = pH 7.4, with quinidine 0.025 µM, quinidine 0.025 μM
[6] = pH 7.4, with quinidine 0.05 µM, quinidine 0.05 μM
[7] = pH 7.4, with quinidine 0.1 µM, quinidine 0.1 μM
[8] = pH 7.4, with quinidine 0.2 µM, quinidine 0.2 μM

Row | Compound | CLint scaled at 100 ng/mL [1, 3] | half-life at 100 ng/mL [1, 3] | CLint scaled at 100 ng/mL [1, 4] | half-life at 100 ng/mL [1, 4] | CLint scaled at 100 ng/mL [1, 5] | half-life at 100 ng/mL [1, 5] | CLint scaled at 100 ng/mL [1, 6] | half-life at 100 ng/mL [1, 6] | CLint scaled at 100 ng/mL [1, 7] | half-life at 100 ng/mL [1, 7] | CLint scaled at 100 ng/mL [1, 8] | half-life at 100 ng/mL [1, 8] | Clint, app Ratio (respective to 0 concentration of Quinidine) ([1]; quinidine 0 μM) | t1/2 Ratio (respective to 0 concentration of Quinidine) ([1]; quinidine 0 μM) | Clint, app Ratio (respective to 0 concentration of Quinidine) ([1]; quinidine 0.0125 μM) | t1/2 Ratio (respective to 0 concentration of Quinidine) ([1]; quinidine 0.0125 μM) | Clint, app Ratio (respective to 0 concentration of Quinidine) ([1]; quinidine 0.025 μM) | t1/2 Ratio (respective to 0 concentration of Quinidine) ([1]; quinidine 0.025 μM) | Clint, app Ratio (respective to 0 concentration of Quinidine) ([1]; quinidine 0.05 μM) | t1/2 Ratio (respective to 0 concentration of Quinidine) ([1]; quinidine 0.05 μM) | also measured
1 | COc1ccc2c(c1)[C@]13CCCC[C@@H]1[C@H](C2)N(C)CC3 [DM, (+)-3-methoxy-17-methyl-(9α,13α,14α)-morphinan] | 15.4 mL/min/kg | 20.5 min | 12.1 mL/min/kg | 25.6 min | 10.6 mL/min/kg | 29.6 min | 9.5 mL/min/kg | 33 min | 7.4 mL/min/kg | 42.1 min | 4.8 mL/min/kg | 64.5 min | 1.0 | 1.0 | 0.79 | 1.2 | 0.69 | 1.4 | 0.62 | 1.6 | Clint, app Ratio (respective to 0 concentration of Quinidine) ([1]; quinidine 0.1 μM): 0.48; t1/2 Ratio (respective to 0 concentration of Quinidine) ([1]; quinidine 0.1 μM): 2.1; Clint, app Ratio (respective to 0 concentration of Quinidine) ([1]; quinidine 0.2 μM): 0.31; t1/2 Ratio (respective to 0 concentration of Quinidine) ([1]; quinidine 0.2 μM): 3.1
2 | [2H]C([2H])([2H])c1ccc2c(c1)[C@]13CCCC[C@@H]1[C@H](C2)N(C([2H])([2H])[2H])CC3 [D6-Dimemorfan] | 48.2 mL/min/kg | 6.5 min | 30.9 mL/min/kg | 10.1 min | 23.6 mL/min/kg | 13.2 min | 17.3 mL/min/kg | 18 min | 10 mL/min/kg | 31.1 min | 8.2 mL/min/kg | 37.9 min | 1.0 | 1.0 | 0.64 | 1.6 | 0.49 | 2.0 | 0.36 | 2.8 | % Δ (D6-Dimemorfan/Dimemorfan) of t1/2 ([1]; quinidine 0 μM): 35%; Clint, app Ratio (D6-Dimemorfan/Dimemorfan) ([1]; quinidine 0 μM): 0.74; % Δ (D6-Dimemorfan/Dimemorfan) of t1/2 ([1]; quinidine 0.0125 μM): 59%; Clint, app Ratio (D6-Dimemorfan/Dimemorfan) ([1]; quinidine 0.0125 μM): 0.61; % Δ (D6-Dimemorfan/Dimemorfan) of t1/2 ([1]; quinidine 0.025 μM): 3%; Clint, app Ratio (D6-Dimemorfan/Dimemorfan) ([1]; quinidine 0.025 μM): 0.96; % Δ (D6-Dimemorfan/Dimemorfan) of t1/2 ([1]; quinidine 0.05 μM): 11%; Clint, app Ratio (D6-Dimemorfan/Dimemorfan) ([1]; quinidine 0.05 μM): 0.90; % Δ (D6-Dimemorfan/Dimemorfan) of t1/2 ([1]; quinidine 0.1 μM): 22%; Clint, app Ratio (D6-Dimemorfan/Dimemorfan) ([1]; quinidine 0.1 μM): 0.82; Clint, app Ratio (respective to 0 concentration of Quinidine) ([1]; quinidine 0.1 μM): 0.21; t1/2 Ratio (respective to 0 concentration of Quinidine) ([1]; quinidine 0.1 μM): 4.8; % Δ (D6-Dimemorfan/Dimemorfan) of t1/2 ([1]; quinidine 0.2 μM): −12%; Clint, app Ratio (D6-Dimemorfan/Dimemorfan) ([1]; quinidine 0.2 μM): 1.11; Clint, app Ratio (respective to 0 concentration of Quinidine) ([1]; quinidine 0.2 μM): 0.17; t1/2 Ratio (respective to 0 concentration of Quinidine) ([1]; quinidine 0.2 μM): 5.8
3 | Cc1ccc2c(c1)[C@]13CCCC[C@@H]1[C@H](C2)N(C)CC3 [Dimemorfan, (+)-(9α,13α,14α)-3,17-dimethylmorphinan] | 64.9 mL/min/kg | 4.81 min | 50.8 mL/min/kg | 6.34 min | 24.7 mL/min/kg | 12.8 min | 19.3 mL/min/kg | 16.2 min | 12.2 mL/min/kg | 25.5 min | 7.4 mL/min/kg | 43.1 min | 1.0 | 1.0 | 0.78 | 1.3 | 0.38 | 2.7 | 0.30 | 3.4 | Clint, app Ratio (respective to 0 concentration of Quinidine) ([1]; quinidine 0.1 μM): 0.19; t1/2 Ratio (respective to 0 concentration of Quinidine) ([1]; quinidine 0.1 μM): 5.3; Clint, app Ratio (respective to 0 concentration of Quinidine) ([1]; quinidine 0.2 μM): 0.11; t1/2 Ratio (respective to 0 concentration of Quinidine) ([1]; quinidine 0.2 μM): 9.0; fraction of a dose metabolized [2]: Greater than 98%
